Assay [1] concerns CAKI-1. The assay is described as follows: NCI human tumor cell panel. Type of assay: cell-based. Conditions: CAKI-1, read-out: Log10 LC50 (converted).
In assay [2] the test system is HOP-92. Put plainly: NCI human tumor cell panel. Conditions: HOP-92, read-out: Log10 LC50 (converted). Type of assay: cell-based.
Assay [3] relates to MDA-MB-231/ATCC. Put plainly: NCI human tumor cell panel. Type of assay: cell-based.
Assay [4] relates to T-47D. Put plainly: NCI human tumor cell panel. Type of assay: cell-based. Conditions: T47D, read-out: Log10 LC50 (converted).
Assay [5] relates to UACC-257. The assay is described as follows: NCI human tumor cell panel. Type of assay: cell-based. Conditions: UACC-257, read-out: Log10 LC50 (converted).
Assay [6] concerns NCI-H226. The assay is described as follows: NCI human tumor cell panel. Conditions: for CC50: NCI-H226, read-out: Log10 LC50 (converted).
For assay [7], the system named is NCI-H23. The assay is described as follows: NCI human tumor cell panel. Conditions: for CC50: NCI-H23, read-out: Log10 LC50 (converted); for IC (TGI): NCI-H23, read-out: Log10 TGI.
The subject of assay [8] is COLO 205. The assay is described as follows: NCI human tumor cell panel. Conditions: COLO 205, read-out: Log10 LC50 (converted).
Assay [9] has as its system HT29. Put plainly: NCI human tumor cell panel. Conditions: HT-29, read-out: Log10 LC50 (converted).
Assay [10] has as its system SNB-19. The assay is described as follows: NCI human tumor cell panel. Conditions: for CC50: SNB-19, read-out: Log10 LC50 (converted).
Assay [11] relates to MALME-3M. The assay is described as follows: NCI human tumor cell panel. Conditions: read-out: Log10 LC50 (converted).
Assay [12] relates to SK-MEL-5. Put plainly: NCI human tumor cell panel. Conditions: SK-MEL-5, read-out: Log10 LC50 (converted).
The subject of assay [13] is OVCAR-8. Put plainly: NCI human tumor cell panel. Conditions: OVCAR-8, read-out: Log10 LC50 (converted).
Assay [14] has as its system SK-OV-3. The assay is described as follows: NCI human tumor cell panel. Conditions: for CC50: SK-OV-3, read-out: Log10 LC50 (converted).
In assay [15] the test system is human tumor cell line panels. Put plainly: NCI human tumor cell panel, whole-panel summary (mean graph) and lines without a row head. Conditions: for Log10 TGI, Delta / Log10 TGI, Range / Log10 LC50, Delta: whole panel.
For assay [16], the system named is SF-268. The assay is described as follows: NCI human tumor cell panel. Type of assay: cell-based. Conditions: SF-268, read-out: Log10 LC50 (converted).
Assay [17] relates to HL-60(TB). The assay is described as follows: NCI human tumor cell panel. Conditions: HL-60, read-out: Log10 LC50 (converted).
For assay [18], the system named is RXF-393. The assay is described as follows: NCI human tumor cell panel. Type of assay: cell-based. Conditions: RXF 393, read-out: Log10 LC50 (converted).
The mark [19] stands for this setting: MDA-MB-231, read-out: Log10 LC50, Breast Cancer (converted), MDA-MB-231/ATCC.
The mark [20] stands for this setting: Homo sapiens, read-out: Log10 TGI.
[21] abbreviates: MDA-MB-231, read-out: Log10 LC50, MDA-MB-231/ATCC (converted).
[22] abbreviates: Homo sapiens, read-out: Log10 GI50, Delta, Delta, whole panel (converted).

Each structure is given as a SMILES string. Read-outs that look alike come from different tables or passages of the source.

The LC50 is the concentration that kills 50% of the test population.

Regarding `O=Cc1ccc(-c2ccc(-c3ccc(C=O)[se]3)s2)s1`, the LC50 in [1] is 29.5 µM. For the same compound, the CC50 in assay [2], in assay [3] (setting [19]), in [4], in [5], in [6] and in [7] was above 100 µM throughout. Also, the CC50 in assay [8] was 91.2 µM; in [9] it was above 100 µM; in [10], above 100 µM; in assay [11], above 100 µM; in [12] it was above 100 µM; in [13] it was above 100 µM. For the same compound, the CC50 in assay [14] is above 100 µM. Also, the IC (TGI) was above 100 µM in assay [6] (NCI-H226, read-out: Log10 TGI); above 100 µM in assay [7]; above 100 µM in [10] (SNB-19, read-out: Log10 TGI); 44.7 µM in [15] (setting [20]).
In the case of `OCc1ccc(-c2ccc(-c3ccc(CO)[se]3)s2)s1`, the CC50 in assay [2] was above 100 µM; in assay [3] (setting [19]), 97.7 µM; in assay [5], 0.24 µM; in assay [7], above 100 µM; in assay [8], 61.7 µM; in [9], above 100 µM. Moreover, the CC50 in assay [10] is above 100 µM; in [11] it was above 100 µM; in [12], above 100 µM; in assay [13], above 100 µM; in [14], 51.3 µM.
As for `OCc1ccc(-c2ccc(-c3ccc[se]3)[se]2)[se]1`, the LC50 in assay [1] was 51.3 µM. Moreover, the CC50 is 38 µM in assay [2]; above 100 µM in [3] (setting [19]); 44.7 µM in assay [4]; above 100 µM in [17]; 70.8 µM in assay [7]; above 100 µM in assay [8]. The CC50 in assay [9] is 58.9 µM; in assay [10], above 100 µM; in assay [11] it was 50.1 µM; in assay [12], 29.5 µM; in assay [13], above 100 µM. Besides, in assay [16], the LC50 (concentration killing 50% of cells) was above 100 µM. Further, the IC (TGI) in assay [7] was 30.9 µM.
Turning to `OCc1ccc(-c2ccc(-c3ccc(CO)[se]3)[se]2)[se]1`, the LC50 in assay [1] is 13.2 µM. For the same compound, the CC50 in [2] is 55 µM; in [18] it was 8.71 µM; in [5] it was 31.6 µM; in assay [6], 9.12 µM; in assay [7], 95.5 µM; in assay [8] it was 17.8 µM. For the same compound, the CC50 is 66.1 µM in assay [9]; 91.2 µM in [10]; 56.2 µM in assay [11]; 6.31 µM in [12]; 72.4 µM in assay [13]. The LC50 (concentration killing 50% of cells) in assay [16] was 20.9 µM. The IC (TGI) in assay [15] (setting [20]) was 10.5 µM.
`OCc1ccc(-c2ccc(-c3ccc(CO)s3)[se]2)s1`: in assay [1], the LC50 was above 100 µM. The CC50 in [2], in assay [3] (setting [19]), in assay [18], in assay [4], in assay [17] and in [6] was above 100 µM each time. Moreover, the CC50 was above 100 µM in assay [7]; 22.9 µM in assay [8]; above 100 µM in [9]; above 100 µM in [10]; above 100 µM in assay [11]; above 100 µM in [12]. In addition, the CC50 in assay [13] and in [14] was above 100 µM in each case. In addition, the LC50 (concentration killing 50% of cells) in assay [16] is above 100 µM. Besides, in [14] (SK-OV-3, read-out: Log10 TGI), the IC (TGI) was above 100 µM.
Consider `OCc1ccc(-c2ccc(-c3ccc(CO)[se]3)s2)[se]1`, for which the LC50 in assay [1] was above 100 µM. Further, the CC50 in [2] is 0.324 µM; in [3] (setting [19]) it was above 100 µM; in assay [18], above 100 µM; in [17] it was above 100 µM; in assay [6], above 100 µM; in assay [7] it was above 100 µM. Further, the CC50 in assay [9], in assay [10], in assay [11], in [12] and in [13] was above 100 µM in each case. For the same compound, in assay [16], the LC50 (concentration killing 50% of cells) was above 100 µM.
As for `OCc1ccc(-c2ccc(-c3cccs3)[se]2)s1`, the CC50 is above 100 µM in assay [2]; above 100 µM in assay [3] (setting [21]); above 100 µM in assay [18]; above 100 µM in assay [4]; 0.0525 µM in [5]; above 100 µM in assay [17]. In addition, the CC50 is 0.224 µM in [6]; above 100 µM in assay [7]; above 100 µM in [9]; above 100 µM in [10]; above 100 µM in assay [11]; above 100 µM in assay [12]. Moreover, the CC50 in [13] is above 100 µM; in assay [14], above 100 µM; in [15] (Homo sapiens, read-out: Log10 LC50, MG_MID (converted)), 61.7 µM. The LC50 (concentration killing 50% of cells) in assay [16] is above 100 µM. For the same compound, the “Log10 TGI, Delta” value in [15] is listed as 3.46. Besides, the GI50 in assay [15] (Homo sapiens, read-out: Log10 GI50, MG_MID (converted)) is 5.25 µM. The IC (TGI) in assay [15] (Homo sapiens, read-out: Log10 TGI, MG_MID) was 28.8 µM. For the same compound, the “Log10 TGI, Range” value in [15] is on record as 4.00.
For `O=Cc1ccc(-c2ccc(-c3ccc(C=O)[se]3)[se]2)[se]1`, in [1], the LC50 is above 100 µM. Besides, the CC50 in [2], in [3] (setting [21]), in assay [18], in assay [4], in assay [5] and in [17] was above 100 µM throughout. Besides, the CC50 in assay [6], in assay [7], in [8], in [9], in assay [10] and in assay [11] was above 100 µM in each case. The CC50 in assay [12] and in [13] was above 100 µM throughout. For the same compound, the LC50 (concentration killing 50% of cells) in assay [16] was above 100 µM. Also, the “Log10 LC50, Delta” value in assay [15] is reported as -4.02. The “Log10 TGI, Delta” value in [15] was -4.18. In assay [15] (setting [22]), the GI50 is 21.4 µM. Further, the “Log10 TGI, Range” value in assay [15] was 1.91.
In the case of `O=Cc1ccc(-c2ccc(-c3ccc[se]3)[se]2)[se]1`, in [1], the 50% lethal concentration (LC50) was 14.5 µM. The CC50 is 63.1 µM in assay [2]; above 100 µM in [18]; 47.9 µM in assay [4]; 33.1 µM in assay [5]; above 100 µM in [17]; 38.9 µM in assay [6]. The CC50 in assay [7] was 69.2 µM; in assay [8], 34.7 µM; in assay [9], 36.3 µM; in assay [10], 87.1 µM; in assay [11], 64.6 µM; in assay [12], 37.2 µM. The CC50 in [13] is 95.5 µM. The LC50 (concentration killing 50% of cells) in assay [16] was above 100 µM. Moreover, the “Log10 LC50, Delta” value in assay [15] is reported as -4.25. Also, the “Log10 TGI, Delta” value in assay [15] is -4.78. In addition, the GI50 in [15] (setting [22]) is 3.72 µM. Also, in assay [15], the “Log10 TGI, Range” value stood at 1.37.
Regarding `O=Cc1ccc(-c2ccc(-c3cccs3)[se]2)s1`, the CC50 in assay [2] is above 100 µM; in assay [18], above 100 µM; in assay [4], 91.2 µM; in assay [5], 0.309 µM; in assay [17], above 100 µM; in assay [6], 1.05 µM. Also, the CC50 in assay [7], in assay [8], in assay [9], in assay [10], in assay [11] and in assay [12] was above 100 µM throughout. Besides, the CC50 in assay [13] and in [14] was above 100 µM throughout. Moreover, the LC50 (concentration killing 50% of cells) in [16] is above 100 µM. Further, the “Log10 LC50, Delta” value in assay [15] is -4.13. In addition, in assay [15], the “Log10 TGI, Delta” value is recorded as -4.42. Also, the GI50 in assay [15] (setting [22]) is 6.76 µM. For the same compound, the “Log10 TGI, Range” value in assay [15] is 3.13.

The values are drawn from patent EP1021178B1, “SELENOPHENE ANTI-TUMOR AGENTS” (Purdue Research Foundation, priority 1996, dated 1997).
